According to the NIST ThermoML archive (doi:10.1007/s10765-014-1730-1):

Conditions: Vibrating tube method; for mass density: Liquid; for specific volume: Gas

F/C=C\C(F)(F)F [(Z)-1,3,3,3-tetrafluoro-1-propene]
Conditions	mass density [kg/m3]	specific volume [m3/kg]
353.14 K, 33995 kPa	1208	–
353.15 K, 96.4 kPa	–	0.26
353.15 K, 134.4 kPa	–	0.185
353.15 K, 220.3 kPa	–	0.112
353.15 K, 228.3 kPa	–	0.107
353.15 K, 253.3 kPa	–	0.096
353.15 K, 407.8 kPa	–	0.057
353.15 K, 3719 kPa	1080.1	–
353.15 K, 14840 kPa	1141.7	–
353.15 K, 15847 kPa	1146.1	–
353.15 K, 16854 kPa	1150.3	–
353.15 K, 18882 kPa	1158.4	–
353.15 K, 19886 kPa	1162.3	–
353.15 K, 20899 kPa	1166.1	–
353.15 K, 22916 kPa	1173.4	–
353.15 K, 24928 kPa	1180.3	–
353.15 K, 25940 kPa	1183.7	–
353.15 K, 26948 kPa	1186.9	–
353.15 K, 27955 kPa	1190.1	–
353.15 K, 28958 kPa	1193.2	–
353.15 K, 29961 kPa	1196.3	–
353.15 K, 30974 kPa	1199.3	–
353.15 K, 31977 kPa	1202.3	–
353.15 K, 32988 kPa	1205.2	–
353.16 K, 926 kPa	1057.5	–
353.16 K, 1696 kPa	1064.4	–
353.16 K, 2698 kPa	1072.4	–
353.16 K, 4742 kPa	1087.3	–
353.16 K, 5750 kPa	1093.9	–
353.16 K, 6761 kPa	1100.2	–
353.16 K, 7770 kPa	1106.2	–
353.16 K, 8771 kPa	1111.9	–
353.16 K, 9787 kPa	1117.4	–
353.16 K, 10798 kPa	1122.6	–
353.16 K, 11809 kPa	1127.7	–
353.16 K, 12819 kPa	1132.5	–
353.16 K, 13828 kPa	1137.2	–
353.16 K, 17868 kPa	1154.4	–
353.16 K, 21904 kPa	1169.8	–
353.16 K, 23917 kPa	1176.9	–
355.15 K, 313.8 kPa	–	0.077
358.15 K, 97.9 kPa	–	0.26
358.15 K, 136.4 kPa	–	0.186
358.15 K, 223.9 kPa	–	0.112
358.15 K, 232 kPa	–	0.107
358.15 K, 257.4 kPa	–	0.096
358.15 K, 415 kPa	–	0.057
360.15 K, 319.1 kPa	–	0.077
363.13 K, 14901 kPa	1116.7	–
363.14 K, 1456 kPa	1023.9	–
363.14 K, 1771 kPa	1027.2	–
363.14 K, 2776 kPa	1037.2	–
363.14 K, 3803 kPa	1046.4	–
363.14 K, 4829 kPa	1055	–
363.14 K, 5830 kPa	1062.7	–
363.14 K, 6835 kPa	1070	–
363.14 K, 7849 kPa	1076.9	–
363.14 K, 8855 kPa	1083.4	–
363.14 K, 9860 kPa	1089.5	–
363.14 K, 10872 kPa	1095.5	–
363.14 K, 11879 kPa	1101.1	–
363.14 K, 12892 kPa	1106.5	–
363.14 K, 13892 kPa	1111.7	–
363.14 K, 15912 kPa	1121.5	–
363.14 K, 16917 kPa	1126.2	–
363.14 K, 17931 kPa	1130.7	–
363.14 K, 18936 kPa	1135	–
363.14 K, 19943 kPa	1139.3	–
363.14 K, 20949 kPa	1143.4	–
363.14 K, 21954 kPa	1147.4	–
363.14 K, 22956 kPa	1151.2	–
363.14 K, 23961 kPa	1155	–
363.14 K, 25973 kPa	1162.3	–
363.14 K, 26975 kPa	1165.8	–
363.14 K, 27982 kPa	1169.3	–
363.14 K, 29991 kPa	1175.9	–
363.14 K, 31998 kPa	1182.3	–
363.15 K, 99.3 kPa	–	0.26
363.15 K, 138.4 kPa	–	0.186
363.15 K, 227.4 kPa	–	0.112
363.15 K, 235.7 kPa	–	0.107
363.15 K, 261.4 kPa	–	0.096
363.15 K, 422.2 kPa	–	0.057
363.15 K, 24969 kPa	1158.7	–
363.15 K, 28984 kPa	1172.6	–
363.15 K, 30992 kPa	1179.1	–
363.15 K, 33009 kPa	1185.4	–
363.15 K, 34010 kPa	1188.4	–
365.15 K, 324.3 kPa	–	0.077
368.15 K, 100.7 kPa	–	0.26
368.15 K, 140.5 kPa	–	0.186
368.15 K, 231 kPa	–	0.112
368.15 K, 239.3 kPa	–	0.107
368.15 K, 265.5 kPa	–	0.096
368.15 K, 429.3 kPa	–	0.057
370.15 K, 329.4 kPa	–	0.077
373.15 K, 102.2 kPa	–	0.26
373.15 K, 142.5 kPa	–	0.186
373.15 K, 234.6 kPa	–	0.112
373.15 K, 242.9 kPa	–	0.107
373.15 K, 269.6 kPa	–	0.096
373.15 K, 436.3 kPa	–	0.057
375.15 K, 334.6 kPa	–	0.077
